# System: Panc-1 and Miapaca-2 pancreatic cancer cells
# Test: MTT cell viability assay, pancreatic cancer cells
# Assay type: cell-based, human
# Conditions: 72 hours
# Method: The 3-(4,5-dimethylthiazol-2-yl)-5-(3-carboxymethoxyphenyl)-2-(4-sulfophenyl)-2H-tetrazolium compound from Promega Viability kit (Madison, Ill.) was added, and the cells were incubated at 37° C. for 1-2 hours. The optical density on 96-plate was analyzed with a microplate reader at 490 nm to determine cell viability. In addition, cells were stained with trypan blue after 24 hours of treatment with Y15 and the percent of cells that stained positive were determined with a hemacytometer. Cell adhesion assay—The poly-L-Lysine or Collagen (5 μg/ml) coated 96-well plates were blocked with the blocking buffer (medium with 0.5% BSA) for 1 hour at 37 C. […] Then 2% SDS was added to the dried plated and OD at 590 nm was measured for detecting cell adhesion. […] Protein concentrations were determined using a Bio-Rad Kit. The boiled samples were loaded on Ready SDS-10% PAGE gels (Bio Rad, Inc) and used for Western blot analysis with the protein-specific antibody. […] Detachment Assay—Cells were plated with and without inhibitors for 24 hours, and detached and attached cells were counted in a hemocytometer. We calculated the percent of detachment by dividing the number of detached cells by the total number of cells. The percent of detached cells was calculated in three independent experiments. […] For each experiment 300 cells per treatment were counted. […]
smiles,measurement,value
"Cl.Cl.Cl.Cl.Nc1cc(N)c(N)cc1N [Y15, 1,2,4,5-benzenetetraamine tetrahydrochloride]",dose from which cell viability was inhibited,1 µM
